Assay results reported in patent US20100178271A1, “Combination Therapy” (GENZYME CORPORATION, priority 2006, published 2010).

Key:
pre-B-ALL cells = conditions: in vitro, cited from earlier work
[1] = tested on: collagen-induced arthritis; conditions: mice; cited from earlier work
[2] = tested on: hematopoietic stem and progenitor cells (HSPC), CFU-GM; assay: CFU-GM mobilization into peripheral blood, BALB/c mice
[3] = tested on: hematopoietic stem and progenitor cells (HSPC), CFU-GM; assay: CFU-GM mobilization into peripheral blood, FancC −/− mice; type: in vivo
[4] = tested on: hematopoietic stem and progenitor cells (HSPC), CFU-GM; assay: CFU-GM mobilization into peripheral blood, +/+ C57B1 (wild type) mice; type: in vivo; conditions: +/+ C57B1 controls; G-CSF alone regimen

Question: For c1cc(CN2CCCNCCNCCCNCC2)ccc1CN1CCCNCCNCCCNCC1 [AMD3100, 1,1′-[1,4-phenylene-bis(methylene)]-bis-1,4,8,11-tetraazacyclotetradecane], which “effect on cytotoxic and antiproliferative effects of vincristine and dexamethasone” value (pre-B-ALL cells; pre-B-ALL cells) is on record?
Answer: enhanced

Question: What about the “SDF-1 induced chemotaxis of pre-B-ALL cells into bone marrow stroma layers” value (pre-B-ALL cells) of the same molecule?
Answer: blocked

Question: What about the “effect in collagen-induced arthritis models” value [1] of the same molecule?
Answer: protective effects

Question: What about the CFU-GM/mL blood mobilized ([2]; blood harvested 60 min after AMD (5 mg/kg SC), alone or on day 5 after G-CSF regimen) of the same molecule?
Answer: 991±121 CFU-GM/mL blood

Question: With “GROβ: recombinant human GROβ, chemokine, CXCR2 agonist” as the molecule, how does the “CFU-GM mobilization in FancC −/− mice relative to +/+ controls” value ([3]; FancC −/− vs +/+ C57B1) read?
Answer: lower in FancC −/− mice

Question: And the CFU-GM/mL blood mobilized ([2]; blood harvested 15 min after GROβ (2.5 mg/kg SC) or GROβ+AMD, alone or on day 5 after G-CSF regimen)?
Answer: 2562±396 CFU-GM/mL blood

B1: G-CSF: recombinant human Granulocyte-Colony Stimulating Factor (protein, UniProt P09919 31-207, looked up)
Granulocyte …: TPLGPASSLPQSFLLKCLEQVRKIQGDGAALQEKLVSECATYKLCHPEELVLLGHSLGIPWAPLSSCPSQALQLAGCLSQLHSGLFLYQGLLQALEGISPELGPTLDTLQLDVADFATTIWQQMEELGMAPALQPTQGAMPAFASAFQRRAGGVLVASHLQSFLEVSYRVLRHLAQP
Question: Which CFU-GM mobilized [4] does the source give for B1 here?
Answer: 1451±80

Question: And the CFU-GM mobilized ([3]; FancC −/− mice, G-CSF alone regimen)?
Answer: 858±21

Question: And the “mobilization lower in FancC −/− mice compared to +/+ controls” value ([3]; FancC −/− vs +/+ C57B1)?
Answer: 45%

Question: And the CFU-GM/mL blood mobilized ([2]; G-CSF alone 100 ug/kg/day, bid, SC×4 days)?
Answer: 4362±996 CFU-GM/mL blood
